Activity calls are given as the source filed them. The rule behind the calls is not given here.

This data set deals with CCRIS mutagenicity, Ames/micronucleus/aberration tests. Nature of the data set: CCRIS mutagenicity studies.
Where [1] appears, read: Test System: AMES SALMONELLA TYPHIMURIUM, Strain/Indicator: TA98, Metabolic Activation: NONE, Method: PREINCUBATION
Setting [2] is: Test System: AMES SALMONELLA TYPHIMURIUM, Strain/Indicator: TA100, Metabolic Activation: NONE, Method: PREINCUBATION
The mark [3] stands for this setting: Test System: AMES SALMONELLA TYPHIMURIUM, Strain/Indicator: TA98, Metabolic Activation: NONE, Method: STANDARD PLATE.

As to `Nc1cc(C(=O)O)c(O)c(S(=O)(=O)O)c1`, the mutagenic call by setting is: (Test System: AMES SALMONELLA TYPHIMURIUM, Strain/Indicator: TA97, Metabolic Activation: HAMSTER, LIVER, S-9, AROCLOR 1254 (10 OR 30%), Method: PREINCUBATION) “inactive; negative”; (Test System: AMES SALMONELLA TYPHIMURIUM, Strain/Indicator: TA97, Metabolic Activation: NONE, Method: PREINCUBATION) “inactive; negative”; (Test System: AMES SALMONELLA TYPHIMURIUM, Strain/Indicator: TA97, Metabolic Activation: RAT, LIVER, S-9, AROCLOR 1254 (10%), Method: PREINCUBATION) “inactive; negative”; (Test System: AMES SALMONELLA TYPHIMURIUM, Strain/Indicator: TA97, Metabolic Activation: RAT, LIVER, S-9, AROCLOR 1254 (30%), Method: PREINCUBATION) “inactive; negative”; (Test System: AMES SALMONELLA TYPHIMURIUM, Strain/Indicator: TA98, Metabolic Activation: HAMSTER, LIVER, S-9, AROCLOR 1254 (10 OR 30%), Method: PREINCUBATION) “inactive; negative”; under setting [1], “inactive; negative”. Further, the mutagenic call by setting is: (Test System: AMES SALMONELLA TYPHIMURIUM, Strain/Indicator: TA98, Metabolic Activation: RAT, LIVER, S-9, AROCLOR 1254 (10 OR 30%), Method: PREINCUBATION) “inactive; negative”; (Test System: AMES SALMONELLA TYPHIMURIUM, Strain/Indicator: TA100, Metabolic Activation: HAMSTER, LIVER, S-9, AROCLOR 1254 (10 OR 30%), Method: PREINCUBATION) “inactive; negative”; under setting [2], “inactive; negative”; (Test System: AMES SALMONELLA TYPHIMURIUM, Strain/Indicator: TA100, Metabolic Activation: RAT, LIVER, S-9, AROCLOR 1254 (10 OR 30%), Method: PREINCUBATION) “inactive; negative”; (Test System: AMES SALMONELLA TYPHIMURIUM, Strain/Indicator: TA1535, Metabolic Activation: HAMSTER, LIVER, S-9, AROCLOR 1254 (10 OR 30%), Method: PREINCUBATION) “inactive; negative”; (Test System: AMES SALMONELLA TYPHIMURIUM, Strain/Indicator: TA1535, Metabolic Activation: NONE, Method: PREINCUBATION) “inactive; negative”. In addition, the mutagenic call runs as follows: (Test System: AMES SALMONELLA TYPHIMURIUM, Strain/Indicator: TA1535, Metabolic Activation: RAT, LIVER, S-9, AROCLOR 1254 (10 OR 30%), Method: PREINCUBATION) “inactive; negative”; (Test System: AMES SALMONELLA TYPHIMURIUM, Strain/Indicator: TA1537, Metabolic Activation: HAMSTER, LIVER, S-9, AROCLOR 1254 (10 OR 30%), Method: PREINCUBATION) “inactive; negative”; (Test System: AMES SALMONELLA TYPHIMURIUM, Strain/Indicator: TA1537, Metabolic Activation: NONE, Method: PREINCUBATION) “inactive; negative”; (Test System: AMES SALMONELLA TYPHIMURIUM, Strain/Indicator: TA1537, Metabolic Activation: RAT, LIVER, S-9, AROCLOR 1254 (10 OR 30%), Method: PREINCUBATION) “inactive; negative”.
As for `O=[N+]([O-])c1ccc(Cl)cc1`, the mutagenic call by setting is: (End Point: IN VITRO CHROMOSOMAL ABERRATIONS, Test System: CHL CELLS, Metabolic Activation: NONE) “active; positive (ploidy changes); precipitation occurred at 0.4, 0.5, and 0.6 mg/ml”; (End Point: IN VITRO CHROMOSOMAL ABERRATIONS, Test System: CHL CELLS, Metabolic Activation: RAT, LIVER, S-9, SODIUM PHENOBARBITAL AND 5,6-BENZOFLAVONE) “active; positive (structural changes); authors report equivocal results for ploidy chang”; (End Point: IN VITRO CHROMOSOMAL ABERRATIONS, Test System: HUMAN PERIPHERAL LYMPHOCYTES, Metabolic Activation: NONE) “inactive; negative”; under setting [1], “inactive; negative”; (Test System: AMES SALMONELLA TYPHIMURIUM, Strain/Indicator: TA98, Metabolic Activation: RAT, LIVER, S-9, KANECHLOR 500, Method: PREINCUBATION) “inactive; negative”; under setting [2], “inactive; negative”. Besides, the mutagenic call is “inactive; negative” (Test System: Ames Salmonella typhimurium, Strain/Indicator: TA98, Metabolic Activation: None, Method: Preincubation); “inactive; negative” (Test System: Ames Salmonella typhimurium, Strain/Indicator: TA98, Metabolic Activation: Rat, Liver, S9, Sodium phenobarbital and 5,6-benzoflavone (10%), Method: Preincubation); “inactive; negative” (Test System: Ames Salmonella typhimurium, Strain/Indicator: TA98, Metabolic Activation: Rat, Liver, S9, Sodium phenobarbital and 5,6-benzoflavone, Method: Preincubation); “inactive; negative” (Test System: Ames Salmonella typhimurium, Strain/Indicator: TA100, Metabolic Activation: None, Method: Preincubation); “inactive; negative” (Test System: Ames Salmonella typhimurium, Strain/Indicator: TA1535, Metabolic Activation: None, Method: Preincubation); “inactive; negative” (Test System: Ames Salmonella typhimurium, Strain/Indicator: TA1535, Metabolic Activation: Rat, Liver, S9, Sodium phenobarbital and 5,6-benzoflavone (10%), Method: Preincubation). The mutagenic call (Test System: Ames Salmonella typhimurium, Strain/Indicator: TA1537, Metabolic Activation: None, Method: Preincubation) is “inactive; negative”; the mutagenic call (Test System: Ames Salmonella typhimurium, Strain/Indicator: TA1537, Metabolic Activation: Rat, Liver, S9, Sodium phenobarbital and 5,6-benzoflavone (10%), Method: Preincubation) is “inactive; negative”; the mutagenic call (Test System: Ames Salmonella typhimurium, Strain/Indicator: TA1537, Metabolic Activation: Rat, Liver, S9, Sodium phenobarbital and 5,6-benzoflavone, Method: Preincubation) is “inactive; negative”; the mutagenic call (Test System: E. coli, Strain/Indicator: WP2uvrA/PKM101, Metabolic Activation: None, Method: Preincubation) is “inactive; negative”; the mutagenic call (Test System: E. coli, Strain/Indicator: WP2uvrA/PKM101, Metabolic Activation: Rat, Liver, S9, Sodium phenobarbital and 5,6-benzoflavone (10%), Method: Preincubation) was “inactive; negative”; the mutagenic call (Test System: E. coli, Strain/Indicator: WP2uvrA/pKM101, Metabolic Activation: None, Method: Preincubation) was “inactive; negative”. Further, where the note is “Test System: E. coli, Strain/Indicator: WP2uvrA/pKM101, Metabolic Activation: Rat, Liver, S9, Sodium phenobarbital and 5,6-benzoflavone, Method: Preincubation”, the mutagenic call is “inactive; negative”.
In the case of `Clc1ccccc1-c1ccccc1`, the mutagenic call (End Point: In vivo mutagenicity, Test System: Liver, Species: Rat, Strain/Sex: Big Blue/Male, Route: Intraperitoneal) was “active; positive; statistically significant increase of mutant frequency of liver laci g”.
On to `CC(=O)OCc1c2ccccc2cc2ccccc12`, for which the mutagenic call by setting is: under setting [3], “active; positive”; (Test System: AMES SALMONELLA TYPHIMURIUM, Strain/Indicator: TA100, Metabolic Activation: NONE, Method: STANDARD PLATE) “active; positive”.
Turning to `Cc1cc(O)ccc1N`, the mutagenic call (Test System: MOUSE LYMPHOMA, Strain/Indicator: L5178Y (TK+/TK-), Metabolic Activation: NONE, Method: SUSPENSION/PLATE) was “active; positive. reevaluation of results: equivocal” and the mutagenic call (Test System: MOUSE LYMPHOMA, Strain/Indicator: L5178Y (TK+/TK-), Metabolic Activation: RAT, LIVER, S-9, AROCLOR 1254, Method: SUSPENSION/PLATE) is “inactive; negative. reevaluation of results: inconclusive”.
In the case of `COc1cc(NC(C)=O)ccc1NC(C)=O`, the mutagenic call is “inactive; negative” under setting [3] and “inactive; negative” (Test System: AMES SALMONELLA TYPHIMURIUM, Strain/Indicator: TA98, Metabolic Activation: RAT, LIVER, S-9, AROCLOR 1254, Method: STANDARD PLATE).
With `NC(N)=NCCCC(N)C(=O)O` (stereo unspecified), the mutagenic call by setting is: (Test System: AMES SALMONELLA TYPHIMURIUM, Strain/Indicator: TA98, Metabolic Activation: RAT LIVER S-9, CHLOROPHENE, Method: STANDARD PLATE (COMPOUND HEATED AT 250 DEGREES CELSIUS FOR 20 MIN)) “active; positive”; (Test System: Ames Salmonella typhimurium, Strain/Indicator: TA98, Metabolic Activation: Rat, Liver, S9, Aroclor 1254, assay without cofactors, Method: Preincubation) “inactive; negative”; (Test System: Ames Salmonella typhimurium, Strain/Indicator: TA98, Metabolic Activation: Rat, Liver, S9, Aroclor 1254, heat inactivated, Method: Preincubation) “inactive; negative”; (Test System: Ames Salmonella typhimurium, Strain/Indicator: TA98, Metabolic Activation: Rat, Liver, S9, Aroclor 1254, Method: Preincubation) “active; positive. statistically significant at 2 highest doses”.

These data come from PubChem BioAssay AID1259407 (Chemical Carcinogenesis Research Information System (CCRIS), 2018).
